Experimental data published in ChEMBL document CHEMBL3758169, “4-Aminoindazolyl-dihydrofuro[3,4-d]pyrimidines as non-covalent inhibitors of mutant epidermal growth factor receptor tyrosine kinase” (Bioorg Med Chem Lett, 2016).

How the values were obtained:
[1] = molecular target: MAP kinase-activated protein kinase 2 (Homo sapiens) (UniProt P49137); assay: Inhibition of MAPKAPK2 (unknown origin) at 100 nM
[2] = molecular target: Serine/threonine-protein kinase Nek1 (Homo sapiens) (UniProt Q96PY6); assay: Inhibition of NEK1 (unknown origin) at 100 nM
[3] = molecular target: Mitogen-activated protein kinase kinase kinase 14 (Homo sapiens) (UniProt Q99558); assay: Inhibition of NIK (unknown origin) at 100 nM
Homo sapiens = species on record: Homo sapiens; assay: Inhibition of PKCbeta1 (unknown origin) at 100 nM
[4] = molecular target: 5'-AMP-activated protein kinase catalytic subunit alpha-1 (Homo sapiens) (UniProt Q13131); assay: Inhibition of PRKAA1 (unknown origin) at 100 nM
[5] = molecular target: Rho-associated protein kinase 1 (Homo sapiens) (UniProt Q13464); assay: Inhibition of ROCK1 (unknown origin) at 100 nM
Rho-associated protein kinase 1 (Homo sapiens), sequence (Q13464 2-1354 limits assumed): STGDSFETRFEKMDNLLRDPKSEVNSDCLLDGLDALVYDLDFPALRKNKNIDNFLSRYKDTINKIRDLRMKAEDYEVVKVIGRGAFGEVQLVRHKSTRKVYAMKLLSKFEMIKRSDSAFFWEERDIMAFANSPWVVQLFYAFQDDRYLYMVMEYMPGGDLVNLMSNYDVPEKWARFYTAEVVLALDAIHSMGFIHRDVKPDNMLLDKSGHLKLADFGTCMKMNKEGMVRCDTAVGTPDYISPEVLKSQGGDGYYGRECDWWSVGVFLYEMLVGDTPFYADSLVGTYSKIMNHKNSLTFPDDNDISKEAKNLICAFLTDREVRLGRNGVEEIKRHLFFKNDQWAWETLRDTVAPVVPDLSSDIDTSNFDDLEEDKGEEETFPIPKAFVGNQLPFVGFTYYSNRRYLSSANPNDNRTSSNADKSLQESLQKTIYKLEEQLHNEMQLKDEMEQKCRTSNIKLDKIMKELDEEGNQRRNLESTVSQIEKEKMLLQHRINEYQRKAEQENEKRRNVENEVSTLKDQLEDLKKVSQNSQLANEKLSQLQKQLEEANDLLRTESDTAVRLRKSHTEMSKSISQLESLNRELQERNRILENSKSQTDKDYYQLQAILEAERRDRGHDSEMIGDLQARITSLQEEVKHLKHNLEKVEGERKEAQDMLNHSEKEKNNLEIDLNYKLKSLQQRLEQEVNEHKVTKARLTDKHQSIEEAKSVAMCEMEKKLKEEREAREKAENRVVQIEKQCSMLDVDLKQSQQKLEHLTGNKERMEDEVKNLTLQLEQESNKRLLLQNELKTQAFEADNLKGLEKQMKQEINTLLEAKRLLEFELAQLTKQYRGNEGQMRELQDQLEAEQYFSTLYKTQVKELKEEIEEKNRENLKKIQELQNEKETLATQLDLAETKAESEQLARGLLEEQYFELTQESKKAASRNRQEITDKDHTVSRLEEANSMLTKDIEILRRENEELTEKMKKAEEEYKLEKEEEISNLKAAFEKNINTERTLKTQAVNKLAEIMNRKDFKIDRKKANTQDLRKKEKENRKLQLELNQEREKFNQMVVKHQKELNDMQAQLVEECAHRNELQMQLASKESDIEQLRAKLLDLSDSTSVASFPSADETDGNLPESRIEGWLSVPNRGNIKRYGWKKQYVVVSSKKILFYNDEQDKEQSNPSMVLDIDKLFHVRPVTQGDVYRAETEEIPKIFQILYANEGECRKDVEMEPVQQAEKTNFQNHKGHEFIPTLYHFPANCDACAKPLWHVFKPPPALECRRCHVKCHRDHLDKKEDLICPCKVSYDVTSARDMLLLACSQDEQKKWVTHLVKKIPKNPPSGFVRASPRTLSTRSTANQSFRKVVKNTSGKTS

TAK1/TAB1 (Homo sapiens) = TAK1/TAB1 (Homo sapiens) (UniProt Q15750+O43318); assay: Inhibition of TAK1-TAB1 (unknown origin) at 100 nM; assay type: protein-complex assay
[6] = molecular target: High affinity nerve growth factor receptor (Homo sapiens) (UniProt P04629); assay: Inhibition of TRKA (unknown origin) at 100 nM
[7] = molecular target: Serine/threonine-protein kinase mTOR (Homo sapiens) (UniProt P42345); assay: Inhibition of mTOR (unknown origin) at 100 nM
[8] = molecular target: Mitogen-activated protein kinase 14 (Homo sapiens) (UniProt Q16539); assay: Inhibition of p38alpha (unknown origin) by direct binding assay at 100 nM
[9] = Plasma clearance in iv dosed rat; assay type: ADME, organism-based
[10] = Apparent permeability from the apical to basolateral side in MDCK cells; assay type: ADME, cell-based, Canis lupus familiaris; details: dog
[11] = molecular target: Epidermal growth factor receptor (Homo sapiens, UniProt P00533, L858R/T790M); assay: Inhibition of EGFR T790M/L858R mutant (unknown origin); assay type: protein assay
Epidermal growth factor receptor (Homo sapiens, UniProt P00533, L858R/T790M), sequence (P00533 25-1210 T790M/L858R limits assumed): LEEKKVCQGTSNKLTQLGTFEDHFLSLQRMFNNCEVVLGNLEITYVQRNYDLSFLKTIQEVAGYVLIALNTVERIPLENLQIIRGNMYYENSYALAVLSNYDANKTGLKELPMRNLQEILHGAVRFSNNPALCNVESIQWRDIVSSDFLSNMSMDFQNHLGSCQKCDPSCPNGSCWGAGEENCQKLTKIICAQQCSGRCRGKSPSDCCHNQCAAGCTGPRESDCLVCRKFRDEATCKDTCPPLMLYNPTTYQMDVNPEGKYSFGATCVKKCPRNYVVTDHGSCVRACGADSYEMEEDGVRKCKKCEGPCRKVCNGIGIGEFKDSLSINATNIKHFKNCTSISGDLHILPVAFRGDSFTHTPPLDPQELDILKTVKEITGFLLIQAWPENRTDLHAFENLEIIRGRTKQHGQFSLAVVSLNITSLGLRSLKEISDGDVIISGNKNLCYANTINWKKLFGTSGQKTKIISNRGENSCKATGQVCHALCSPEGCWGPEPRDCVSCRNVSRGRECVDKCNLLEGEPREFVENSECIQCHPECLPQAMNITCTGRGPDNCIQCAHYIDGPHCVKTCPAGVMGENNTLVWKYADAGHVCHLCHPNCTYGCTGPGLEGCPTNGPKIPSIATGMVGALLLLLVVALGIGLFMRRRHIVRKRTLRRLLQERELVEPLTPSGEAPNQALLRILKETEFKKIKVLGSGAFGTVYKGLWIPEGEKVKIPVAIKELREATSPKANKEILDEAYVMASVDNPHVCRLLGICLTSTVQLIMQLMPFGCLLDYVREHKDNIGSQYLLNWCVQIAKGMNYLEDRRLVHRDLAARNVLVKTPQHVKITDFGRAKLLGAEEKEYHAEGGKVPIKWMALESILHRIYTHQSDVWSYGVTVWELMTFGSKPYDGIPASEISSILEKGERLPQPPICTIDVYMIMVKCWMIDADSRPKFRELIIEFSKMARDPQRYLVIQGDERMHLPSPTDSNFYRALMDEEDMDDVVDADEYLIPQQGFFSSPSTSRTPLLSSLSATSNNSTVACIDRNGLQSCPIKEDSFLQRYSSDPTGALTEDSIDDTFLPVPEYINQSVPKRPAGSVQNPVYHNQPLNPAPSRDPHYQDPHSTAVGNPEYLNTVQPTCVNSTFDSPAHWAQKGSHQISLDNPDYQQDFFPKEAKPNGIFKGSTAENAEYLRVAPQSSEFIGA

[12] = molecular target: T1, Epidermal growth factor receptor (Homo sapiens, UniProt P00533); assay: Inhibition of wild type EGFR (unknown origin)
[13] = molecular target: Epidermal growth factor receptor (Homo sapiens, UniProt P00533, L858R); assay: Inhibition of EGFR L858R mutant (unknown origin); assay type: protein assay
[14] = molecular target: T1, Epidermal growth factor receptor; assay: Inhibition of EGFR deletion (746 to 750 residues) mutant (unknown origin); assay type: protein assay
Target sequence in this assay (P00533 25-1210 limits assumed, stated change not applied): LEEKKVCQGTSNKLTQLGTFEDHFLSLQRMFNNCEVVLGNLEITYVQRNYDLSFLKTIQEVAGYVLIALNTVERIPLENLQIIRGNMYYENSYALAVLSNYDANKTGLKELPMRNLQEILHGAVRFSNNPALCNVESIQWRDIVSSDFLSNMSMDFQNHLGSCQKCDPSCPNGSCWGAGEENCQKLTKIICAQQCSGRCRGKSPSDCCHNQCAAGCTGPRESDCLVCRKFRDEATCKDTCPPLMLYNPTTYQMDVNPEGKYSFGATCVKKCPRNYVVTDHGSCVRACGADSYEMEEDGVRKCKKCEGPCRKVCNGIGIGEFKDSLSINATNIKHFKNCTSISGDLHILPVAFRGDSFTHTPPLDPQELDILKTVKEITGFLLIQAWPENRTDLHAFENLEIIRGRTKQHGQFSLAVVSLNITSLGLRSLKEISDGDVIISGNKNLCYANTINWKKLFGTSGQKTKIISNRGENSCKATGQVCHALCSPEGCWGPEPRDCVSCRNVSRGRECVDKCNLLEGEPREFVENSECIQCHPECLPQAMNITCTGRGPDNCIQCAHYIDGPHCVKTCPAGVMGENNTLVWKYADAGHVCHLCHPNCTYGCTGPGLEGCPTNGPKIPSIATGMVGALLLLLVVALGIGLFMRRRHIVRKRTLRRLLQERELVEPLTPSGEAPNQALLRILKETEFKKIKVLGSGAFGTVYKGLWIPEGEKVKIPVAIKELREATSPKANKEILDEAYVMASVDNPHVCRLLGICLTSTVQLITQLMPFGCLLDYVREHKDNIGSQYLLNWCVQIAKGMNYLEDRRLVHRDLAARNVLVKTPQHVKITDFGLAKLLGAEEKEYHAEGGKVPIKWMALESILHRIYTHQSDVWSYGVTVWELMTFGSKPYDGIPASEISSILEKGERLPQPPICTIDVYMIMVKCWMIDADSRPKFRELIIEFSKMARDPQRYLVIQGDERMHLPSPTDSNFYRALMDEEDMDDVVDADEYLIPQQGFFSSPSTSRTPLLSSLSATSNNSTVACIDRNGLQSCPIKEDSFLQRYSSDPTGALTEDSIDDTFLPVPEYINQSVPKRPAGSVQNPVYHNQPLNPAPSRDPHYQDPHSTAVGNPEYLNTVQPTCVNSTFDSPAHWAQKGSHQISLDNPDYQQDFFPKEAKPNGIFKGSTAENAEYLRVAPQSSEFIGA

[15] = molecular target: T1, Epidermal growth factor receptor; assay: Inhibition of EGFR T790M/deletion (746 to 750 residues) mutant (unknown origin); assay type: protein assay
Target sequence in this assay (P00533 25-1210 limits assumed, stated change not applied): as above

[16] = molecular target: Tyrosine-protein kinase ABL1 (Homo sapiens) (UniProt P00519); assay: Inhibition of ABL (unknown origin) at 100 nM
[17] = molecular target: Cyclin-dependent kinase 5/CDK5 activator 1 (Homo sapiens) (UniProt Q00535+Q15078); assay: Inhibition of CDK5/p25 (unknown origin) at 100 nM; assay type: protein-complex assay
[18] = molecular target: CDK8/Cyclin C (Homo sapiens) (UniProt P49336+P24863); assay: Inhibition of CDK8/cyclinC (unknown origin) at 100 nM; assay type: protein-complex assay
[19] = molecular target: Macrophage colony-stimulating factor 1 receptor (Homo sapiens) (UniProt P07333); assay: Inhibition of CSF1R (unknown origin) at 100 nM
[20] = system: Epidermal growth factor receptor (Homo sapiens), P00533 [L858R]; assay: Inhibition of EGFR L858R mutant (unknown origin) at 100 nM; assay type: protein assay
[21] = system: Epidermal growth factor receptor (Homo sapiens), P00533 [T790M]; assay: Inhibition of EGFR T790M mutant (unknown origin) at 100 nM; assay type: protein assay
[22] = molecular target: Ephrin type-A receptor 2 (Homo sapiens) (UniProt P29317); assay: Inhibition of EPHA2 (unknown origin) at 100 nM
[23] = molecular target: Receptor-type tyrosine-protein kinase FLT3 (Homo sapiens) (UniProt P36888); assay: Inhibition of FLT3 (unknown origin) at 100 nM
[24] = molecular target: Glycogen synthase kinase-3 beta (Homo sapiens) (UniProt P49841); assay: Inhibition of GSK3beta (unknown origin) at 100 nM
[25] = molecular target: Inhibitor of nuclear factor kappa-B kinase subunit alpha (Homo sapiens) (UniProt O15111); assay: Inhibition of IKKalpha (unknown origin) at 100 nM
[26] = molecular target: T2, Inhibitor of nuclear factor kappa-B kinase subunit epsilon (Homo sapiens) (UniProt Q14164); assay: Inhibition of IKKepsilon (unknown origin) at 100 nM
T2 sequence (whole entry): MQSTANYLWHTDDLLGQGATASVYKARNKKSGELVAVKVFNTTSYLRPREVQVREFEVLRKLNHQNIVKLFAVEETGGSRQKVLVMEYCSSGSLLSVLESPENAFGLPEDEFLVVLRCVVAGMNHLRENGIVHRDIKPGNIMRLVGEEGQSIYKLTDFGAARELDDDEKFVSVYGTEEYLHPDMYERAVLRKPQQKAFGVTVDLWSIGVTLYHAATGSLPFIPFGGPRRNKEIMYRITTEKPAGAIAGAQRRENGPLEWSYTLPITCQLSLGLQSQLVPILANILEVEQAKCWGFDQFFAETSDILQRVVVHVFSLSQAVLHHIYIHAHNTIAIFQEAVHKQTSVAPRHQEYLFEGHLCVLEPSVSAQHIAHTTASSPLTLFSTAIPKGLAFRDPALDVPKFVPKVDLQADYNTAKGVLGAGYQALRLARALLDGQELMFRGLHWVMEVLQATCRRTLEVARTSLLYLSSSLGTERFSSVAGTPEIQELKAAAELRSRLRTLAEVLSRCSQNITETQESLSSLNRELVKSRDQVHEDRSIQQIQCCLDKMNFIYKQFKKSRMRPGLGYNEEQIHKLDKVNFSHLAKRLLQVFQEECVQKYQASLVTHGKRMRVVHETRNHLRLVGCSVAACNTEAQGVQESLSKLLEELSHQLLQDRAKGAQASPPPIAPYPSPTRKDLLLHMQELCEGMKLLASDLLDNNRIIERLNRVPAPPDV

[27] = molecular target: Tyrosine-protein kinase ITK/TSK (Homo sapiens) (UniProt Q08881); assay: Inhibition of ITK (unknown origin) at 100 nM
[28] = molecular target: Tyrosine-protein kinase JAK2 (Homo sapiens) (UniProt O60674); assay: Inhibition of JAK2 (unknown origin) at 100 nM
Tyrosine-protein kinase JAK2 (Homo sapiens), sequence (O60674 whole entry, the tested form may be a part): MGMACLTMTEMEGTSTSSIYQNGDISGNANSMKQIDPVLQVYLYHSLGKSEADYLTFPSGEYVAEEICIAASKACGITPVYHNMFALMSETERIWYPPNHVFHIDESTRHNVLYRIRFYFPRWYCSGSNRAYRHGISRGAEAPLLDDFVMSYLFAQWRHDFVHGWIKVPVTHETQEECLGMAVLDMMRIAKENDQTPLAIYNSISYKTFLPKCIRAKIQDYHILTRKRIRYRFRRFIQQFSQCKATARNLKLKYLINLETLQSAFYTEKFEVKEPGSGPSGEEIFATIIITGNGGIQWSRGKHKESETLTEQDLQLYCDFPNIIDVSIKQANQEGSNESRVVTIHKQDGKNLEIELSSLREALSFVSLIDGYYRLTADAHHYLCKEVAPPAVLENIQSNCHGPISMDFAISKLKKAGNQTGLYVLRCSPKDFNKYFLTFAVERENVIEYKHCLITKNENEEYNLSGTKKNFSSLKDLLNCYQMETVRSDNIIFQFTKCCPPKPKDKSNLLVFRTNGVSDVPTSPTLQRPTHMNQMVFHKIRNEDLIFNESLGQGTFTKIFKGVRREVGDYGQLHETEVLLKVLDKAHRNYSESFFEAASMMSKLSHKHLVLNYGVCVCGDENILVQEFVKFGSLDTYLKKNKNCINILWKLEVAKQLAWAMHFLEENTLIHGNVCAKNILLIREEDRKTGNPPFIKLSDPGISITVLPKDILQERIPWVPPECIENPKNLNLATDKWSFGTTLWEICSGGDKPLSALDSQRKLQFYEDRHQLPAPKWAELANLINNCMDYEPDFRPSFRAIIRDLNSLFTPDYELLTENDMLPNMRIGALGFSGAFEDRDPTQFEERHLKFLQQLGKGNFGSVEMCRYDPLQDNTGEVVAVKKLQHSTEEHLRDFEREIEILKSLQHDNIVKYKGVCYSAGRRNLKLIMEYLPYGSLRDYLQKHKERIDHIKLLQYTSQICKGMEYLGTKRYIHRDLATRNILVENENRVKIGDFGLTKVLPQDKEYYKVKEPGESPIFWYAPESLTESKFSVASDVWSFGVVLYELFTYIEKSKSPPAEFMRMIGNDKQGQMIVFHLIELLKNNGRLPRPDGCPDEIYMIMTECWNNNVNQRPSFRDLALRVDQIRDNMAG

[29] = molecular target: Tyrosine-protein kinase JAK2 (Homo sapiens) (UniProt O60674); assay: Inhibition of JAK2 JH1JH2 domain (unknown origin) at 100 nM
[30] = molecular target: Vascular endothelial growth factor receptor 2 (Homo sapiens) (UniProt P35968); assay: Inhibition of KDR (unknown origin) at 100 nM
[31] = molecular target: Leucine-rich repeat serine/threonine-protein kinase 2 (Homo sapiens) (UniProt Q5S007); assay: Inhibition of LRRK2 (unknown origin) at 100 nM
[32] = molecular target: Tyrosine-protein kinase Lck (Homo sapiens) (UniProt P06239); assay: Inhibition of LCK (unknown origin) at 100 nM
[33] = molecular target: Serine/threonine-protein kinase Chk1 (Homo sapiens) (UniProt O14757); assay: Inhibition of CHK1 (unknown origin) at 100 nM

Row | inhibition [1] | inhibition [2] | inhibition [3] | inhibition (Homo sapiens) | inhibition [4] | inhibition [5] | inhibition (TAK1/TAB1 (Homo sapiens)) | inhibition [6] | inhibition [7] | inhibition [8] | clearance [9] | Papp A→B [10] | Ki [11] | Ki [12] | Ki [13] | Ki [14] | Ki [15] | inhibition [16] | inhibition [17] | inhibition [18] | Compound | further results
1 | 1.9% | 6.8% | 18% | 35.1% | -3.1% | 0.8% | 8.9% | 10.2% | -1.6% | 20.6% | 86 mL/min/kg | 6.7 ×10⁻⁶ cm/s | 2 nM | 0.6 nM | 0.5 nM | 0.2 nM | 1.6 nM | 54.1% | 0% | 7.9% | CC1(C)OCc2c(Nc3n[nH]c4ccccc34)nc(-c3cn[nH]c3)nc21 | inhibition [19]: 17.5%; inhibition [20]: 97.7%; inhibition [21]: 95.2%; inhibition [22]: 12.2%; inhibition [23]: 16.5%; inhibition [24]: 41.9%; inhibition [25]: -5.3%; inhibition [26]: -8.7%; inhibition [27]: 4%; inhibition [28]: 9.8%; inhibition [29]: 1.9%; inhibition [30]: 97.2%; inhibition [31]: 13.2%; inhibition [32]: 50.6%; inhibition [33]: 2.7%
2 | 2.1% | -4% | -0.3% | 33% | 27.8% | 2.3% | 3.1% | 12.6% | 8.7% | 22.4% | 74 mL/min/kg | 9.5 ×10⁻⁶ cm/s | 2 nM | 1.5 nM | 1.3 nM | 0.4 nM | 1.3 nM | 35.3% | 7.8% | 11.7% | CC1(C)OCc2c(Nc3n[nH]c4c(Cl)cccc34)nc(-c3cn[nH]c3)nc21 | inhibition [19]: 19.1%; inhibition [20]: 90.5%; inhibition [21]: 91.3%; inhibition [22]: 11.8%; inhibition [23]: 67.3%; inhibition [24]: 61%; inhibition [25]: -1.8%; inhibition [26]: 3.2%; inhibition [27]: 2%; inhibition [28]: 8.8%; inhibition [29]: 14%; inhibition [30]: 99.3%; inhibition [31]: 7.5%; inhibition [32]: 86.9%; inhibition [33]: 5.3%
